In patent publication US12077503B2, “Substituted cyclic amides and their use as herbicides” (FMC CORPORATION, priority 2015, dated 2024):

How the values were obtained:
Format in all cases: in vivo
[1] = system: ryegrass, Italian (Italian ryegrass, Lolium multiflorum); assay: Test A preemergence
In short: (§1)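 Seeded soil received test chemicals as a preemergence directed spray, and seedlings at one to two leaves, 2–10 cm tall, received them postemergence, in a non-phytotoxic, surfactant-containing solvent mixture. Pots were held in a greenhouse for approximately 10 d, then rated for injury from 0, no effect, to 100, complete control.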

[2] = system: giant foxtail (Setaria faberii); assay: Test A preemergence
In short: as §1

[3] = system: barnyardgrass (Echinochloa crus-galli); assay: Test A preemergence
In short: as §1

Kochia (Kochia scoparia) [4] = assay: Test A preemergence
In short: as §1

[5] = system: pigweed (Amaranthus retroflexus); assay: Test A preemergence
[6] = system: ragweed (common ragweed, Ambrosia elatior); assay: Test A preemergence
In short: as §1

rice (Oryra sativa) = assay: Test B flooded paddy test; settings: Flood, 250 g ai/ha; 0 to 100 scale where 0 is no effect and 100 is complete control; 13 to 15 d
In short: (§2)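 2-leaf plants; pots flooded 3 cm over soil; cpd added to paddy water; depth held; greenhouse 13–15 d; visual rating vs controls, 0 = no effect, 100 = complete control.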

[7] = system: ducksalad (Heteranthera limosa); assay: Test B flooded paddy test; settings: Flood, 250 g ai/ha; 0 to 100 scale where 0 is no effect and 100 is complete control; 13 to 15 d
In short: as §2

[8] = system: barnyardgrass (Echinochloa crus-galli); assay: Test B flooded paddy test; settings: Flood, 250 g ai/ha; 0 to 100 scale where 0 is no effect and 100 is complete control; 13 to 15 d
In short: as §2

[9] = system: sedge, umbrella (small-flower umbrella sedge, Cyperus difformis); assay: Test B flooded paddy test; settings: Flood, 250 g ai/ha; 0 to 100 scale where 0 is no effect and 100 is complete control; 13 to 15 d
In short: as §2

[10] = system: Galium (catchweed bedstraw, Galium aparine); assay: Test A postemergence; settings: postemergence, 0 to 100 scale (0 no effect, 100 complete control)
In short: as §1

[11] = system: wheat (Triticum aestivum); assay: Test A postemergence; settings: postemergence, 0 to 100 scale (0 no effect, 100 complete control)
In short: as §1

[12] = system: ryegrass, Italian (Italian ryegrass, Lolium multiflorum); assay: Test A postemergence; settings: postemergence, 0 to 100 scale (0 no effect, 100 complete control)
In short: as §1

[13] = system: giant foxtail (Setaria faberii); assay: Test A postemergence; settings: postemergence, 0 to 100 scale (0 no effect, 100 complete control)
In short: as §1

[14] = system: barnyardgrass (Echinochloa crus-galli); assay: Test A postemergence; settings: postemergence, 0 to 100 scale (0 no effect, 100 complete control)
In short: as §1

Kochia (Kochia scoparia) [15] = assay: Test A postemergence; settings: postemergence, 0 to 100 scale (0 no effect, 100 complete control)
In short: as §1

[16] = system: pigweed (Amaranthus retroflexus); assay: Test A postemergence; settings: postemergence, 0 to 100 scale (0 no effect, 100 complete control)
In short: as §1

corn (Zea mays) = assay: Test A postemergence; settings: postemergence, 0 to 100 scale (0 no effect, 100 complete control)
In short: as §1

[17] = system: blackgrass (Alopecurus myosuroides); assay: Test A postemergence; settings: postemergence, 0 to 100 scale (0 no effect, 100 complete control)
In short: as §1

[18] = system: ragweed (common ragweed, Ambrosia elatior); assay: Test A postemergence; settings: postemergence, 0 to 100 scale (0 no effect, 100 complete control)
In short: as §1

[19] = 125 g ai/ha, Preemergence, visual injury after approximately 10 d, 0 to 100 scale where 0 is no effect and 100 is complete control
[20] = 500 g ai/ha, preemergence, 0 to 100 scale, 0 = no effect, 100 = complete control
[21] = 125 g ai/ha, visual rating after approx. 10 d
[22] = 500 g ai/ha, visual injury, approx. 10 d

With `CN1CC(c2ccc(F)c(F)c2)C(C(=O)Nc2ccccc2S(C)(=O)=O)C1=O` (stereo not drawn) [Compound 640] the “Plant response rating, Ryegrass, Italian” value [1, 19] was 20, the “Plant response rating, Ryegrass, Italian” value [1, 20] was 50 and the “Plant response rating, Foxtail, Giant” value [2, 19] was 90. The “Plant response rating, Foxtail, Giant” value [2, 20] was 90, the “Plant response rating, Barnyardgrass” value [3, 19] was 90 and the “Plant response rating, Barnyardgrass” value [3, 20] was 90. The “Plant response rating, Kochia” value (Kochia (Kochia scoparia) [4]; [19]) was 50, the “Plant response rating, Kochia” value (Kochia (Kochia scoparia) [4]; [20]) was 60 and the “Plant response rating, Pigweed” value [5, 19] was 80. For the same compound, the “Plant response rating, Pigweed” value [5, 20] was 90, the “Plant response rating, Ragweed” value [6, 19] was 40 and the “Plant response rating, Ragweed” value [6, 20] was 60. For the same compound, the “Plant response rating, Rice” value (rice (Oryra sativa)) was 25, the “Plant response rating, Ducksalad” value [7] was 100 and the “Plant response rating, Barnyardgrass” value [8] was 30. For the same compound, the “Plant response rating, Sedge, Umbrella” value [9] was 0, the “Plant response rating, Galium” value [10, 21] was 40 and the “Plant response rating, Galium” value [10, 22] was 50. For the same compound, the “Plant response rating, Wheat” value [11, 21] was 0, the “Plant response rating, Wheat” value [11, 22] was 50 and the “Plant response rating, Ryegrass, Italian” value [12, 21] was 0. For the same compound, the “Plant response rating, Ryegrass, Italian” value [12, 22] was 0, the “Plant response rating, Foxtail, Giant” value [13, 21] was 80 and the “Plant response rating, Foxtail, Giant” value [13, 22] was 90. For the same compound, the “Plant response rating, Barnyardgrass” value [14, 21] was 90, the “Plant response rating, Barnyardgrass” value [14, 22] was 90 and the “Plant response rating, Kochia” value (Kochia (Kochia scoparia) [15]; [21]) was 0. For the same compound, the “Plant response rating, Kochia” value (Kochia (Kochia scoparia) [15]; [22]) was 40, the “Plant response rating, Pigweed” value [16, 21] was 0 and the “Plant response rating, Pigweed” value [16, 22] was 20. The “Plant response rating, Corn” value (corn (Zea mays); [21]) was 0, the “Plant response rating, Corn” value (corn (Zea mays); [22]) was 0 and the “Plant response rating, Blackgrass” value [17, 21] was 0. The “Plant response rating, Blackgrass” value [17, 22] was 50, the “Plant response rating, Ragweed” value [18, 21] was 0 and the “Plant response rating, Ragweed” value [18, 22] was 0.
